Among the test systems are HCT-15 colon; K-562 leukemia; MOLT-4 leukemia; OVCAR-4 ovarian; PC-3 prostate; SF-539 CNS; SW-620 colon; T-47D breast; U251 CNS; UACC-257 melanoma.
What all share (assay): NCI-60 cell line screen, 48 h

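Grown in 96-well plates, cells were treated for 48 hours with each compound at five concentrations. Insufficient inhibition: endpoint recorded as highest concentration tested. At the TGI there is no net growth.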

As for `Cn1c2c(c3c(=O)[nH]ncc31)Cc1ccccc1-2`, the TGI in the assay with HCT-15 colon is over 100 µM; in the assay with K-562 leukemia it was over 100 µM; with MOLT-4 leukemia, over 100 µM; in the assay with OVCAR-4 ovarian, over 100 µM; with PC-3 prostate, over 100 µM; with SF-539 CNS, 78.7 µM. Besides, the TGI in the assay with SW-620 colon was found to be 91.2 µM; in the assay with T-47D breast, 78.2 µM; in the assay on U251 CNS it was 85.8 µM; in the assay on UACC-257 melanoma, 27.1 µM.
As for `CC(=O)OC12c3ccccc3C(c3ccccc31)C1C(=O)N(N=C(C)C)C(=O)C12` (centres undefined), the TGI with HCT-15 colon, with K-562 leukemia, in the assay with MOLT-4 leukemia, in the assay with OVCAR-4 ovarian, in the assay with PC-3 prostate and in the assay with SF-539 CNS was over 100 µM throughout. In addition, the TGI with SW-620 colon, in the assay with T-47D breast, in the assay with U251 CNS and with UACC-257 melanoma was over 100 µM in each case.
In the case of `CC(=O)CCC1(C(=O)OCC(C)C)CCCC1=O` (centres undefined), the TGI in the assay on HCT-15 colon, in the assay with K-562 leukemia, with MOLT-4 leukemia, in the assay on OVCAR-4 ovarian, in the assay on PC-3 prostate and in the assay on SF-539 CNS was over 100 µM throughout. Further, the TGI with SW-620 colon, in the assay on T-47D breast, in the assay with U251 CNS and with UACC-257 melanoma was over 100 µM in each case.
As for `Cc1n[nH]c(=O)n1-n1cccc1`, the TGI with HCT-15 colon, in the assay on K-562 leukemia, in the assay on MOLT-4 leukemia, in the assay with OVCAR-4 ovarian, in the assay on PC-3 prostate and in the assay on SF-539 CNS was over 100 µM throughout. In addition, the TGI with SW-620 colon, in the assay with T-47D breast, in the assay on U251 CNS and with UACC-257 melanoma was over 100 µM in each case.
For the compound `CC(=O)c1c(-c2ccc(Cl)cc2)c(C#N)c(=S)n(C2OC(CO)C(O)C(O)C2O)c1C` (centres undefined), the TGI with HCT-15 colon is over 100 µM; in the assay with K-562 leukemia, over 100 µM; with MOLT-4 leukemia, 52.8 µM; with OVCAR-4 ovarian it was over 100 µM; in the assay with PC-3 prostate it was 99.3 µM; in the assay with SF-539 CNS, over 100 µM. Also, the TGI in the assay on T-47D breast, in the assay with U251 CNS and with UACC-257 melanoma was over 100 µM in each case.
For `CC(C)Oc1cccc(N2C(CCc3c[nH]c4ccc(Br)cc34)=NS(=O)(=O)c3cnccc32)c1`, the TGI in the assay on HCT-15 colon is over 100 µM; in the assay with K-562 leukemia, over 100 µM; in the assay on MOLT-4 leukemia, 92 µM; in the assay with OVCAR-4 ovarian, over 100 µM; in the assay with PC-3 prostate, over 100 µM; with SF-539 CNS it was over 100 µM. For the same compound, the TGI with SW-620 colon, with T-47D breast, with U251 CNS and in the assay with UACC-257 melanoma was over 100 µM in each case.
As for `O=c1[nH]c2c(Nc3c4ccccc4nc4ccccc34)c([N+](=O)[O-])c(Nc3c4ccccc4nc4ccccc34)c([N+](=O)[O-])c2[nH]1`, the TGI with HCT-15 colon was 6.98 µM; in the assay on K-562 leukemia it was 11.7 µM; with MOLT-4 leukemia it was 2.39 µM; with OVCAR-4 ovarian, 10.1 µM; in the assay on PC-3 prostate, 5.97 µM; in the assay with SF-539 CNS, 18.6 µM. The TGI in the assay with SW-620 colon was over 100 µM; in the assay with T-47D breast it was over 39.1 µM; in the assay with U251 CNS it was 8.35 µM; in the assay on UACC-257 melanoma it was 10.4 µM.
Take `C/C(=N\NC(=S)NC(C)(C)C)c1nc2ncccc2[nH]1`: the TGI in the assay on HCT-15 colon is over 100 µM; in the assay with K-562 leukemia, over 100 µM; in the assay on MOLT-4 leukemia it was 23.7 µM; in the assay on OVCAR-4 ovarian, over 100 µM; in the assay with PC-3 prostate, over 100 µM; in the assay with SF-539 CNS, 13.6 µM. In addition, the TGI with SW-620 colon was over 100 µM; in the assay on T-47D breast, over 33.7 µM; in the assay with U251 CNS, over 100 µM; with UACC-257 melanoma it was over 100 µM.
On to `O=C(OCCN=c1c2ccccc2ccc2ccccc12)c1cc([N+](=O)[O-])cc([N+](=O)[O-])c1`, for which the TGI with HCT-15 colon, in the assay with K-562 leukemia, in the assay with MOLT-4 leukemia, in the assay on OVCAR-4 ovarian, in the assay with PC-3 prostate and with SF-539 CNS was over 100 µM throughout. In addition, the TGI in the assay with SW-620 colon, with T-47D breast, with U251 CNS and in the assay on UACC-257 melanoma was over 100 µM each time.
As to `CC(C)OC(=O)C(NC(=O)C(CC(=O)OCc1ccccc1)NC(=O)OCc1ccccc1)NC(=O)C1C(C)(C)CCC1(C)C` (centres undefined), the TGI in the assay with HCT-15 colon is 30.7 µM; in the assay with K-562 leukemia, 15.9 µM; in the assay with MOLT-4 leukemia, over 51 µM; with OVCAR-4 ovarian, 14.2 µM; in the assay on PC-3 prostate, 11.2 µM; in the assay on SF-539 CNS, 13.1 µM. The TGI is 10.8 µM with SW-620 colon, over 69.5 µM in the assay on T-47D breast, 4.68 µM with U251 CNS and over 60.8 µM with UACC-257 melanoma.
In the case of `COc1cc(C=O)cc(C=Nc2ccc(Br)cc2)c1O`, the TGI with HCT-15 colon is over 100 µM; with K-562 leukemia, over 100 µM; with MOLT-4 leukemia, 62.4 µM; in the assay with OVCAR-4 ovarian, over 100 µM; with PC-3 prostate it was 50.5 µM; in the assay on SF-539 CNS, 7 µM. Besides, the TGI in the assay on SW-620 colon was over 100 µM; with T-47D breast, over 100 µM; in the assay with U251 CNS, over 100 µM; in the assay on UACC-257 melanoma, 34 µM.
On to `Clc1[nH]nc2ccccc12`, for which the TGI in the assay on HCT-15 colon, in the assay with K-562 leukemia, in the assay on MOLT-4 leukemia, in the assay with OVCAR-4 ovarian, in the assay on PC-3 prostate and in the assay on SF-539 CNS was over 100 µM in each case. Besides, the TGI in the assay on SW-620 colon, with T-47D breast, with U251 CNS and with UACC-257 melanoma was over 100 µM in each case.
`CCOC(=O)N1CCNCCN(C(=O)OCC)CCNCC1`: the TGI in the assay with HCT-15 colon, with K-562 leukemia, in the assay on MOLT-4 leukemia, in the assay with OVCAR-4 ovarian, in the assay on PC-3 prostate and with SF-539 CNS was over 100 µM in each case. Also, the TGI with SW-620 colon, in the assay on T-47D breast, in the assay with U251 CNS and in the assay with UACC-257 melanoma was over 100 µM throughout.

(Values after PubChem BioAssay (NCI).)
